Reference: patent publication US20230304058A1, “NOVEL 5'CAP ANALOG HAVING CAP2 STRUCTURE AND PREPARATION METHOD THEREFOR” (Shenzhen Rhegen Biotechnology Co., Ltd., priority 2020, published 2023)

What was measured:
mRNA = mRNA capping rate by RNase H cleavage and LC-MS; assay type: biochemical; conditions: ratio of capped and uncapped mRNA
Source text: The mRNA molecules with different Cap structures obtained in Example 1 were subjected to enzymatic cleavage, and the ratio of capped and uncapped mRNA molecules could be determined in a liquid chromatography-mass spectrometry analysis experiment.
1. Concentrate the beads using a magnet, aspirate the supernatant storage solution, and add an equal volume of 0.1 M NaOH +0.05 M NaCl;
2. Aspirate the supernatant and resuspend the beads with an equal volume of 0.1 M NaCl, keep the concentration constant;
3. Anneal mRNA and cleavage tags, configure the following reaction system;
Gradient annealing: 95° C. 5 min
4. Combining cleavage tags with beads • Beads were centrifuged at 15,000 g for 5 min, and the supernatant was removed, then 120 μl of annealed mRNA and tags were added and incubated for 30 min at room temperature, during which time they were gently shaken to ensure adequate binding.
5. Enzyme cleavage using RNase H; • Add 10 μl RNase H and incubate at 37° C. for 3 h. Precipitate the beads with magnet and discard the supernatant. • Add 100 μl washing buffer, mix thoroughly, magnet precipitate for 2 min, and discard the supernatant. Repeat 3 times. • Wash with DI water for 3 times.
6. Hydrolysis with RppH; • Use 10 units RppH in nebuffer 2 to hydrolyze at room temperature for 1 h.
DI water was aspirated, 100 μl of 75% ethanol preheated to 80° C. was added, incubat for 3 min, and magnet precipitat for 3 min. The supernatant was taken, followed by evaporating, and centrifuge for 45 min to a volume of 10 μl. Finally, the sample was resuspended in 50 μl of […] EDTA/1% MeOH and left for LC-MS analysis.
9. the mRNA capping rate of different Cap analogs synthesized was analyzed with LC-MS.

[1] = system: TLR3, TLR7, TLR8 and RIG-1; assay: Intracellular immunogenicity of capped mRNA by RNA immunoprecipitation and quantitative PCR; assay type: cell-based; conditions: relative to ARCA; Human-derived PBMC cells, 5 μg mRNA, Lipofectamine 2000, 24 h
Description: Experimental methods: the intracellular immunoproteins TLR3, TLR7, TLR8 and RIG-1 were immunoprecipitated together with their bound RNAs by RNA immunoprecipitation, and finally these mRNAs were identified by real-time quantitative PCR, and their relative abundance was proportional to their immunogenicity.
The cells were collected by trypsin digestion 24 h later and resuspended in PBS, centrifuged, and collected.
Fixative was added to the cells, and after 15 minutes glycine was added for termination of fixation, followed by centrifugation to collect the cells. Cells were resuspended by adding lysate, incubated on ice at 4° C. for 30 min, centrifuged at 2400 g for 10 min, and the supernatant was collected.
TLR3, TLR7, TLR8 and RIG-1 antibodies (2-10 μg) were added to the supernatant (6-10 mg) followed by gentle incubation at 4° C. for 2 hours. Protein AIG beads (40 μL) were then added to them and incubated gently for 1 h at 4° C.
Centrifuge at 2500 rpm for 30 seconds with precipitated magnetic beads and remove the supernatant. Resuspend the beads in 500 μL of RIP buffer. Wash in RIP buffer a total of three times, followed by one wash in PBS.
Resuspend magnetic beads in TRIzol RNA Extraction Reagent (1 mL) and isolate co-precipitated RNA, and then elute RNA using nuclease-free water (20 μL).
6. Reverse transcribe (RT) the RNA into cDNA and design primers according to the mRNA sequence for quantitative PCR analysis. mRNA immunogenicity is proportional to the number of mRNA copies precipitated by magnetic beads.

T7 Enzyme Mix = T7 Enzyme Mix (Escherichia phage T7, UniProt P00573); assay: In vitro transcription mRNA synthesis with cap analog, reaction yield; assay type: biochemical; conditions: per ml transcription reaction system; 37° C. for 6 h; LiCl purification
Description: 1. Before synthesizing mRNA, linearize the plasmid with Notl, digested at […] overnight;
2. Extract with DNA template;
React at 37° C. for 6 h. Digest with TURBO DNase for 15 min.
4. Purify the transcription products using LiCl solution and calculate the reaction yields.

T7 Enzyme Mix, sequence (P00573 whole entry): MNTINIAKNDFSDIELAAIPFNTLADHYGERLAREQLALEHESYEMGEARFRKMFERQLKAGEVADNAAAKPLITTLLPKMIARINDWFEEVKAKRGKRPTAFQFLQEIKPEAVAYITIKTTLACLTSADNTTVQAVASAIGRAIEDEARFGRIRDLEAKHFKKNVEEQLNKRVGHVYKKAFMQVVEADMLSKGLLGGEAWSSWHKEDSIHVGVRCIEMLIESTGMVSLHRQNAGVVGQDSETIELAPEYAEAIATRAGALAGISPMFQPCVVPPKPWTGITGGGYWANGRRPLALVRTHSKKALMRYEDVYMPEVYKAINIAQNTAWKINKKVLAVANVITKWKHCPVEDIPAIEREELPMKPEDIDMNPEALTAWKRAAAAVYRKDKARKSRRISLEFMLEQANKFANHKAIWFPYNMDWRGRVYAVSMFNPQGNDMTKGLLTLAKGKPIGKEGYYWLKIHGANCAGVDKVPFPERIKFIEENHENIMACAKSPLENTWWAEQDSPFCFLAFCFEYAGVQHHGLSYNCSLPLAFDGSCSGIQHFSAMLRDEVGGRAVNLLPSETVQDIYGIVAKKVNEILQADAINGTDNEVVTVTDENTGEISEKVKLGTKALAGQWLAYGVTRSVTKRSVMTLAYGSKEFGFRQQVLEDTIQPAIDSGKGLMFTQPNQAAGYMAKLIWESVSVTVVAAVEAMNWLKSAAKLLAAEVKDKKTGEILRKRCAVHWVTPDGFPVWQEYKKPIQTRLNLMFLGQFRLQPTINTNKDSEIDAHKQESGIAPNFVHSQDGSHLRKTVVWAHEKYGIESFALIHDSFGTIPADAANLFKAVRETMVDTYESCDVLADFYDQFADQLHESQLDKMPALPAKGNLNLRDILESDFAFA

SMILES	mRNA capping rates when using different Cap structures (mRNA) [%]	Intracellular immunogenicity of mRNA when using different Cap structures [1]	Mass of final product obtained from 1 ml mRNA synthesis reaction system (T7 Enzyme Mix) [mg]
CO[C@@H]1[C@H](O)[C@@H](COP(=O)(O)O[C@H]2[C@@H](OC)[C@H](n3cnc4c(N)ncnc43)O[C@@H]2COP(=O)(O)OP(=O)(O)OP(=O)([O-])OC[C@H]2O[C@@H](n3c[n+](C)c4c(=O)[nH]c(N)nc43)[C@H](O)[C@@H]2O)O[C@H]1n1ccc(=O)[nH]c1=O [Cap analog 13, m7G(5′)ppp(5′)(2′OMeA)p(2′OMeU)]	94.77	0.23	5.1
CO[C@@H]1[C@H](O)[C@@H](COP(=O)(O)O[C@H]2[C@@H](OC)[C@H](n3cnc4c(=O)[nH]c(N)nc43)O[C@@H]2COP(=O)(O)OP(=O)(O)OP(=O)([O-])OC[C@H]2O[C@@H](n3c[n+](C)c4c(=O)[nH]c(N)nc43)[C@H](O)[C@@H]2O)O[C@H]1n1ccc(=O)[nH]c1=O [Cap analog 14, m7G(5′)ppp(5′)(2′OMeG)p(2′OMeU)]	94.82	0.35	5.5
CO[C@@H]1[C@H](O)[C@@H](COP(=O)(O)O[C@H]2[C@@H](OC)[C@H](n3ccc(N)nc3=O)O[C@@H]2COP(=O)(O)OP(=O)(O)OP(=O)([O-])OC[C@H]2O[C@@H](n3c[n+](C)c4c(=O)[nH]c(N)nc43)[C@H](O)[C@@H]2O)O[C@H]1n1ccc(=O)[nH]c1=O [Cap analog 15, m7G(5′)ppp(5′)(2′OMeC)p(2′OMeU)]	94.83	0.34	4.6
CO[C@@H]1[C@H](O)[C@@H](COP(=O)(O)O[C@H]2[C@@H](OC)[C@H](n3ccc(=O)[nH]c3=O)O[C@@H]2COP(=O)(O)OP(=O)(O)OP(=O)([O-])OC[C@H]2O[C@@H](n3c[n+](C)c4c(=O)[nH]c(N)nc43)[C@H](O)[C@@H]2O)O[C@H]1n1ccc(=O)[nH]c1=O [Cap analog 16, m7G(5′)ppp(5′)(2′OMeU)p(2′OMeU)]	94.84	0.48	4.2
CO[C@@H]1[C@H](O)[C@@H](COP(=O)(O)O[C@H]2[C@@H](OC)[C@H](n3cnc4c(N)ncnc43)O[C@@H]2COP(=O)(O)OP(=O)(O)OP(=O)([O-])OC[C@H]2O[C@@H](n3c[n+](C)c4c(=O)[nH]c(N)nc43)[C@H](O)[C@@H]2OC)O[C@H]1n1cnc2c(=O)[nH]c(N)nc21 [Cap analog 17, 3-O-Me-m7G(5′)ppp(5′)(2′OMeA)p(2′OMeG)]	94.91	0.44	4.7
CO[C@@H]1[C@H](O)[C@@H](COP(=O)(O)O[C@H]2[C@@H](OC)[C@H](n3cnc4c(=O)[nH]c(N)nc43)O[C@@H]2COP(=O)(O)OP(=O)(O)OP(=O)([O-])OC[C@H]2O[C@@H](n3c[n+](C)c4c(=O)[nH]c(N)nc43)[C@H](O)[C@@H]2OC)O[C@H]1n1cnc2c(=O)[nH]c(N)nc21 [Cap analog 18, 3-O-Me-m7G(5′)ppp(5′)(2′OMeG)p(2′OMeG)]	94.98	0.31	4.1
CO[C@@H]1[C@H](OP(=O)(O)OC[C@H]2O[C@@H](n3cnc4c(=O)[nH]c(N)nc43)[C@H](OC)[C@@H]2O)[C@@H](COP(=O)(O)OP(=O)(O)OP(=O)([O-])OC[C@H]2O[C@@H](n3c[n+](C)c4c(=O)[nH]c(N)nc43)[C@H](O)[C@@H]2OC)O[C@H]1n1ccc(N)nc1=O [Cap analog 19, 3-O-Me-m7G(5′)ppp(5′)(2′OMeC)p(2′OMeG)]	95	0.26	4.4
